Data: ChEMBL document CHEMBL4265990, “Synthesis, anticancer activity and cytotoxicity of galactosylated epothilone B” (Bioorg Med Chem, 2018)

Columns and labels:
MCF7 [1] = test: Antiproliferative activity against human MCF7 cells after 2 days by MTT assay; type: functional, cell-based; conditions: for IC50: MCF7, 48 h
MCF7 [2] = test: Antiproliferative activity against human MCF7 cells at 0.01 to 100 nmol/L after 2 days by MTT assay; type: functional

SMILES	IC50 (MCF7 [1])	Activity (MCF7 [2])	Activity (MCF7 [1])
C/C(=C\c1csc(C)n1)[C@@H]1C[C@@H]2O[C@]2(C)CCC[C@H](C)[C@H](OC(=O)CO[C@@H]2O[C@H](CO)[C@H](O)[C@H](O)[C@H]2O)[C@@H](C)C(=O)C(C)(C)[C@@H](O)CC(=O)O1	5730 nM	7.9 - 98.6%	–
C/C(=C\c1csc(C)n1)[C@@H]1C[C@@H]2O[C@]2(C)CCC[C@H](C)[C@H](O)[C@@H](C)C(=O)C(C)(C)[C@@H](O)CC(=O)O1 [PATUPILONE]	38.2 nM	3 - 80.3%	Dose-dependent effect
